Measurements reported in the NIST ThermoML archive (doi:10.1007/s10765-005-8591-6).

Test: xn = mol fraction of the nth substance listed
Settings: Fluid (supercritical or subcritical phases), Constant-volume piezometry

FC(F)C(F)(F)F [pentafluoroethane] + FCF
Settings | mass density [kg/m3]
258.15 K, 2177 kPa, x2 = 0.3004 | 1342.88
258.16 K, 1554.4 kPa, x2 = 0.4995 | 1294.18
258.16 K, 4595.6 kPa, x2 = 0 | 1403.78
259.14 K, 2658.3 kPa, x2 = 0.6995 | 1234.39
259.15 K, 2403.7 kPa, x2 = 0.4995 | 1294.07
259.15 K, 2913.1 kPa, x2 = 0.3004 | 1342.77
261.15 K, 3061.1 kPa, x2 = 0.8997 | 1151.87
261.15 K, 4118.3 kPa, x2 = 0.4995 | 1293.85
261.15 K, 4474.9 kPa, x2 = 0.3004 | 1342.56
261.15 K, 4516.2 kPa, x2 = 0.6995 | 1234.17
261.15 K, 6579.8 kPa, x2 = 0 | 1403.47
262.14 K, 4056 kPa, x2 = 0.8997 | 1151.77
262.14 K, 7284.6 kPa, x2 = 0 | 1403.36
263.15 K, 5058.3 kPa, x2 = 0.8997 | 1151.67
263.15 K, 5848.5 kPa, x2 = 0.4995 | 1293.64
263.15 K, 6106.3 kPa, x2 = 0.3004 | 1342.34
263.15 K, 6362.9 kPa, x2 = 0.6995 | 1233.97
264.15 K, 3235.2 kPa, x2 = 0.098 | 1362.36
264.15 K, 6053.5 kPa, x2 = 0.8997 | 1151.57
264.15 K, 7288.1 kPa, x2 = 0.6995 | 1233.88
265.15 K, 7050.9 kPa, x2 = 0.8997 | 1151.47
265.15 K, 7767 kPa, x2 = 0.3004 | 1342.13
265.15 K, 8213.6 kPa, x2 = 0.6995 | 1233.78
265.17 K, 7585.9 kPa, x2 = 0.4995 | 1293.43
267.15 K, 9040.9 kPa, x2 = 0.8997 | 1151.28
267.15 K, 9274.4 kPa, x2 = 0.4995 | 1293.23
267.15 K, 10051 kPa, x2 = 0.6995 | 1233.58
267.16 K, 5301.3 kPa, x2 = 0.098 | 1362.04
267.16 K, 9382.9 kPa, x2 = 0.3004 | 1341.92
267.16 K, 10809 kPa, x2 = 0 | 1402.84
268.15 K, 10032 kPa, x2 = 0.8997 | 1151.19
268.2 K, 10152 kPa, x2 = 0.4995 | 1293.13
269.14 K, 10950 kPa, x2 = 0.4995 | 1293.04
269.15 K, 10983 kPa, x2 = 0.3004 | 1341.71
269.15 K, 11894 kPa, x2 = 0.6995 | 1233.38
269.16 K, 11031 kPa, x2 = 0.8997 | 1151.09
270.15 K, 7414.4 kPa, x2 = 0.098 | 1361.73
270.19 K, 13003 kPa, x2 = 0 | 1402.53
271.13 K, 12647 kPa, x2 = 0.4995 | 1292.84
271.15 K, 13008 kPa, x2 = 0.8997 | 1150.92
271.16 K, 13740 kPa, x2 = 0.6995 | 1233.2
273.08 K, 14311 kPa, x2 = 0.4995 | 1292.65
273.15 K, 9532.7 kPa, x2 = 0.098 | 1361.42
273.15 K, 14255 kPa, x2 = 0.3004 | 1341.32
273.15 K, 14990 kPa, x2 = 0.8997 | 1150.74
273.15 K, 15076 kPa, x2 = 0 | 1402.23
273.16 K, 15579 kPa, x2 = 0.6995 | 1233.01
274.14 K, 15969 kPa, x2 = 0.8997 | 1150.66
274.16 K, 16499 kPa, x2 = 0.6995 | 1232.92
275.13 K, 16066 kPa, x2 = 0.4995 | 1292.46
275.15 K, 16572 kPa, x2 = 0 | 1402.04
282.15 K, 15978 kPa, x2 = 0.098 | 1360.53
313.13 K, 2217.5 kPa, x2 = 0.3003 | 1050.39
313.15 K, 2820.6 kPa, x2 = 0.1 | 1097.54
318.14 K, 2959 kPa, x2 = 0.8992 | 900.95
318.15 K, 2921.8 kPa, x2 = 0.6998 | 949.66
318.15 K, 4528.5 kPa, x2 = 0.1 | 1097.17
318.18 K, 3901.3 kPa, x2 = 0.3003 | 1050.03
318.21 K, 3341.8 kPa, x2 = 0.4993 | 1000.3
323.13 K, 5212.3 kPa, x2 = 0.8992 | 900.63
323.14 K, 4867 kPa, x2 = 0.6998 | 949.34
323.15 K, 5129.3 kPa, x2 = 0.4993 | 999.96
323.16 K, 5645.9 kPa, x2 = 0.3003 | 1049.68
323.16 K, 6252.9 kPa, x2 = 0.1 | 1096.79
328.14 K, 6839.9 kPa, x2 = 0.6998 | 949.01
328.15 K, 7408.9 kPa, x2 = 0.3003 | 1049.33
328.15 K, 7986 kPa, x2 = 0.1 | 1096.43
328.16 K, 6969.7 kPa, x2 = 0.4993 | 999.62
328.16 K, 7509.2 kPa, x2 = 0.8992 | 900.31
333.13 K, 8834 kPa, x2 = 0.6998 | 948.69
333.13 K, 9793.4 kPa, x2 = 0.8992 | 900.01
333.14 K, 9188.4 kPa, x2 = 0.3003 | 1048.98
333.15 K, 8814.5 kPa, x2 = 0.4993 | 999.29
333.17 K, 9741.9 kPa, x2 = 0.1 | 1096.06
338.12 K, 12100 kPa, x2 = 0.8992 | 899.7
338.13 K, 10843 kPa, x2 = 0.6998 | 948.37
338.13 K, 10979 kPa, x2 = 0.3003 | 1048.63
338.14 K, 11489 kPa, x2 = 0.1 | 1095.7
338.19 K, 10690 kPa, x2 = 0.4993 | 998.95
343.12 K, 12860 kPa, x2 = 0.6998 | 948.05
343.12 K, 14419 kPa, x2 = 0.8992 | 899.4
343.13 K, 12772 kPa, x2 = 0.3003 | 1048.29
343.13 K, 13247 kPa, x2 = 0.1 | 1095.35
343.18 K, 12550 kPa, x2 = 0.4993 | 998.62
348.12 K, 14887 kPa, x2 = 0.6998 | 947.74
348.13 K, 16746 kPa, x2 = 0.8992 | 899.1
348.16 K, 14423 kPa, x2 = 0.4993 | 998.3
348.16 K, 15022 kPa, x2 = 0.1 | 1094.99
348.17 K, 14592 kPa, x2 = 0.3003 | 1047.95
353.11 K, 16917 kPa, x2 = 0.6998 | 947.43
353.13 K, 16290 kPa, x2 = 0.4993 | 997.98
353.14 K, 16386 kPa, x2 = 0.3003 | 1047.61
353.14 K, 16782 kPa, x2 = 0.1 | 1094.64
354.13 K, 16744 kPa, x2 = 0.3003 | 1047.54
354.15 K, 16672 kPa, x2 = 0.4993 | 997.91
